Assay results: US20250361230A1, “LATS Inhibitors and Uses Thereof” (The USA, as Represented by the Secretary, Dept. of Heath …, priority 2022, published 2025)
Like-named read-outs stand apart in the source and are kept apart here.

How the values were obtained:
Type in all cases: biochemical
LATS2 = target: T1, LATS2 (Homo sapiens, UniProt Q9NRM7); experiment: RBC HotSpot kinase assay (33P-ATP, P81 filter-binding), LATS2; settings: read-out: LATS2 IC50
T1 sequence (Q9NRM7 1-1088): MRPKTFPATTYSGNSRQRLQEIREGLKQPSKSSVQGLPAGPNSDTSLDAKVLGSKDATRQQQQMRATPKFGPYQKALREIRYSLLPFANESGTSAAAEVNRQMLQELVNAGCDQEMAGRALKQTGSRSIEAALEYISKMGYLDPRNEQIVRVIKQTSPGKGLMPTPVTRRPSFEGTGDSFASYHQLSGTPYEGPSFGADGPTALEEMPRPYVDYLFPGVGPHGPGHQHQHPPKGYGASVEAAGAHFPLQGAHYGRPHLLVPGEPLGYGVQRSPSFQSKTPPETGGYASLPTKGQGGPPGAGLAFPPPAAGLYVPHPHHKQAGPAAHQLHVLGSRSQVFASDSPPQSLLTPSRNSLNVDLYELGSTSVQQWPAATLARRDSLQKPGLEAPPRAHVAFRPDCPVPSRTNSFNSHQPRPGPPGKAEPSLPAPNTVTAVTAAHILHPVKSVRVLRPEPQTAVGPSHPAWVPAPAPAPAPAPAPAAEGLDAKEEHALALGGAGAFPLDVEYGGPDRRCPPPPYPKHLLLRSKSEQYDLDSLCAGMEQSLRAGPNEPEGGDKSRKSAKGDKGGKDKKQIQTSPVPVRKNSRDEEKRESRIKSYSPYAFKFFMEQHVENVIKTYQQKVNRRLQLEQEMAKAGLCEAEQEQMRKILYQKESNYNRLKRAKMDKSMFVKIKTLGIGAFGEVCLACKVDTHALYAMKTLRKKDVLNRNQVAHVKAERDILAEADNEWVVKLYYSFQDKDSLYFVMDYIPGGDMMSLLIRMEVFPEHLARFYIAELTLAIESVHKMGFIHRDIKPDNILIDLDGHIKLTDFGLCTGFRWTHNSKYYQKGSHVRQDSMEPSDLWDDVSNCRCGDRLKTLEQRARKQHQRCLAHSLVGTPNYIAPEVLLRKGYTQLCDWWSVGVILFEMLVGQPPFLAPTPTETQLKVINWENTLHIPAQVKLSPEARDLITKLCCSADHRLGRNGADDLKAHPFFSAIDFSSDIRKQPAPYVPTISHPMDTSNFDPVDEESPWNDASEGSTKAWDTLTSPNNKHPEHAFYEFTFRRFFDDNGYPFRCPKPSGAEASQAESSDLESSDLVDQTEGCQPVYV
Method: (§1) Biochemical kinase inhibitory data was obtained for various exemplary compounds prepared according to the above.
(§2) The reagents used are as follows: Base Reaction buffer; 20 mM Hepes (pH 7.5), 10 mM MgCl2, 1 mM EGTA, 0.01% Brij35, 0.02 mg/ml BSA, 0.1 mM Na3VO4, 2 mM DTT, […]. Required cofactors were added individually to each kinase reaction.
(§3) The reaction procedure was as follows: • 1) Substrates were prepared in freshly prepared Reaction Buffer. • 2) Any required cofactors were delivered to the substrate solution above. • 3) Kinase was delivered into the substrate solution and gently mixed. • 4) Compounds were delivered in 100% DMSO into the kinase reaction mixture by Acoustic technology (Echo550; nanoliter range), followed by incubation for 20 min at room temp. • 5) ^33P-ATP was delivered into the reaction mixture to initiate the reaction. • 6) The mixture was incubated for 2 hours at room temperature. • 7) Kinase activity was detected by P81 filter-binding method.
(§4) Using the above functional assay, the inhibitory activity of the compounds for LATS1/2 versus AKT was characterized. The assays were typically run in a 10-point curve, in singlet, to produce a titration curve from which an IC50 value was obtained.
(§5) The reagents used are as follows: Base Reaction buffer; 20 mM Hepes (pH 7.5), 10 mM MgCl2, 1 mM EGTA, 0.01% Brij35, 0.02 mg/ml BSA, 0.1 mM Na3VO4, 2 mM DTT, 1% DMSO. Required cofactors were added individually to each kinase reaction.
(§6) Biochemical kinase inhibitory data was obtained for various exemplary compounds prepared according to the above in accordance with the protocols described in Examples 4 and 8. All biological activities are IC50, in nM.

LATS1 = target: T2, LATS1 (Homo sapiens, UniProt O95835); experiment: RBC HotSpot kinase assay (33P-ATP, P81 filter-binding), LATS1; settings: read-out: LATS1 IC50
T2 sequence (O95835 1-1130): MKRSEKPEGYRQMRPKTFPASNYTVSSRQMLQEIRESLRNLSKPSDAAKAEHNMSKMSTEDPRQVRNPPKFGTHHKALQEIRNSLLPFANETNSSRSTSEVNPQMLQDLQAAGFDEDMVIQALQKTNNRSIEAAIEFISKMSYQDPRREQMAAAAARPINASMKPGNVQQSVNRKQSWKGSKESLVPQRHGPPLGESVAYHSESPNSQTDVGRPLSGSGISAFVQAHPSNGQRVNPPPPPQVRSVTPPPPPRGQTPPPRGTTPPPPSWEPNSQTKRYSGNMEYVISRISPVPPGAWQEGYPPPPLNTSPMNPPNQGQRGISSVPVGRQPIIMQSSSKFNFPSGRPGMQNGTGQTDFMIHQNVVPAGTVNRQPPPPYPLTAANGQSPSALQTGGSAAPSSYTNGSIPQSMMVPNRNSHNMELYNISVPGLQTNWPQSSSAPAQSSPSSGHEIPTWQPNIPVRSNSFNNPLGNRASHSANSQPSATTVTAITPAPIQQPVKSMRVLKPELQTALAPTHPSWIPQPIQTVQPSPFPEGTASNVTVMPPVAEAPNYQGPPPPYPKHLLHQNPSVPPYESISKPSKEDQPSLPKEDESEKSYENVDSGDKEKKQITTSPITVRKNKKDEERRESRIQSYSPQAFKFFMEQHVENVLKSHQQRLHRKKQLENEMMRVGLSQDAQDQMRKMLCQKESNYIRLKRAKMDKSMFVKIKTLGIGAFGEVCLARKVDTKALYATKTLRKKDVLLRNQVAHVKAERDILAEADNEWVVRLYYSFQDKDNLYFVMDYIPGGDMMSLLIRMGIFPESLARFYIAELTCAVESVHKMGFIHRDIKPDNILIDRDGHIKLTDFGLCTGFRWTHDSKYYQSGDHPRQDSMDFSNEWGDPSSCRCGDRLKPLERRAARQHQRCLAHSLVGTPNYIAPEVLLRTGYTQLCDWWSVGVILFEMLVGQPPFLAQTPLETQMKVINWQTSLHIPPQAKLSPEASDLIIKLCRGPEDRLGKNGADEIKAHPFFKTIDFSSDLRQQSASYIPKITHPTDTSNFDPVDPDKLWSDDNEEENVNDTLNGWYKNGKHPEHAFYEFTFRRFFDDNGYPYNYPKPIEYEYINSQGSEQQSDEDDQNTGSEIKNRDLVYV
Method: as §1, §2, §3, §4, §5, §6

AKT = AKT (Homo sapiens, UniProt P31749); experiment: RBC HotSpot kinase assay (33P-ATP, P81 filter-binding), AKT; settings: read-out: AKT IC50
Method: as §1, §2, §3, §4, §5, §6

[1] = Table 28, biochemical kinase assay

Sequence of AKT (P31749 whole entry): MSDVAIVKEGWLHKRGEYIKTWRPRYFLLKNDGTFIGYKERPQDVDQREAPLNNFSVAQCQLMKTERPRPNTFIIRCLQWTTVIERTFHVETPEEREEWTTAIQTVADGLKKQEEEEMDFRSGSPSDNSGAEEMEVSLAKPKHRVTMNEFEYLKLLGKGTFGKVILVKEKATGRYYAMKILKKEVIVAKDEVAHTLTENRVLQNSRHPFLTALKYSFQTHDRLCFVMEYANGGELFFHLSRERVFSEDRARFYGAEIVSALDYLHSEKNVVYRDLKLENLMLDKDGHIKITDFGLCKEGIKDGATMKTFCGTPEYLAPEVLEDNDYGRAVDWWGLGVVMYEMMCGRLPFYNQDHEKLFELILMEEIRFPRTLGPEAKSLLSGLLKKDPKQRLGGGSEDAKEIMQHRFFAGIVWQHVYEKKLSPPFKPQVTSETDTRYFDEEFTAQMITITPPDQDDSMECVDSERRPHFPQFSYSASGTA

| SMILES | IC50 (LATS2; biochemical kinase inhibition) [nM] | IC50 (LATS1; biochemical kinase inhibition) [nM] | IC50 (AKT; biochemical kinase inhibition) [nM] | IC50 (LATS2; [1]) [nM] | IC50 (LATS1; [1]) [nM] | IC50 (AKT; [1]) [nM] |
| --- | --- | --- | --- | --- | --- | --- |
| Cc1cc(-c2ccnc3[nH]cc(C#N)c23)cc(F)c1[C@@]1(O)[C@H](C)CN(C(=O)[C@H](N)CO)C[C@@H]1C (single isomer, unassigned) [Compound 2006] | 1.4 | 3.6 | 126 | – | – | – |
| Cc1c[nH]c2nccc(-c3ccc([C@@]4(O)[C@H](C)CNC[C@@H]4C)cn3)c12 [Compound 3, (3R,4s,5S)-3,5-dimethyl-4-(6-(3-methyl-1H-pyrrolo[2,3-b]pyridin-4-yl)pyridin-3-yl)piperidin-4-ol] | – | – | – | 49.6 | 72.3 | 4410 |
| COc1cc(-c2ccnc3[nH]cc(F)c23)ncc1[C@@]1(O)[C@H](C)CNC[C@@H]1C [Compound 4, (3R,4s,5S)-4-(6-(3-fluoro-1H-pyrrolo[2,3-b]pyridin-4-yl)-4-methoxypyridin-3-yl)-3,5-dimethylpiperidin-4-ol] | – | – | – | 56.7 | 18.2 | 4160 |
| C[C@@H]1CN(C)C[C@H](C)[C@@]1(O)c1ccc(-c2ccnc3[nH]cc(F)c23)cc1Cl [Compound 5, (3S,4s,5R)-4-(2-chloro-4-(3-fluoro-1H-pyrrolo[2,3-b]pyridin-4-yl)phenyl)-1,3,5-trimethylpiperidin-4-ol] | – | – | – | 12.5 | 9.2 | 67 |
| CC(C)N1C[C@@H](C)[C@](O)(c2ccc(-c3ccnc4[nH]cc(F)c34)cc2Cl)[C@@H](C)C1 [Compound 6, (3S,4s,5R)-4-(2-chloro-4-(3-fluoro-1H-pyrrolo[2,3-b]pyridin-4-yl)phenyl)-1-isopropyl-3,5-dimethylpiperidin-4-ol] | – | – | – | 1.4 | 1.3 | 90.9 |
| Cc1nc(-c2ccnc3[nH]cc(F)c23)ccc1[C@@]1(O)[C@H](C)CNC[C@@H]1C [Compound 10, (3S,4s,5R)-4-(6-(3-fluoro-1H-pyrrolo[2,3-b]pyridin-4-yl)-2-methylpyridin-3-yl)-3,5-dimethylpiperidin-4-ol] | – | – | – | 20.3 | 23.7 | 1720 |
| C[C@@H]1CNC[C@H](C)[C@@]1(O)c1ccc(-c2ccnc3[nH]cc(F)c23)cc1C(F)(F)F [Compound 11, (3S,4s,5R)-4-(4-(3-fluoro-1H-pyrrolo[2,3-b]pyridin-4-yl)-2-(trifluoromethyl)phenyl)-3,5-dimethylpiperidin-4-ol] | – | – | – | 10.7 | 11.1 | 143 |
| Cc1cc(-c2ccnc3[nH]cc(F)c23)cc(Cl)c1[C@@]1(O)[C@H](C)CNC[C@@H]1C [Compound 12, (3S,4s,5R)-4-(2-chloro-4-(3-fluoro-1H-pyrrolo[2,3-b]pyridin-4-yl)-6-methylphenyl)-3,5-dimethylpiperidin-4-ol] | – | – | – | 81.2 | 201 | 10.1 |
| Cc1c[nH]c2nccc(-c3cc(F)c([C@@]4(O)[C@H](C)CNC[C@@H]4C)c(F)c3)c12 [Compound 15] | – | – | – | 7.2 | 8.5 | 362 |
| Cc1cc(-c2ccnc3[nH]cc(F)c23)cc(F)c1[C@@]1(O)[C@H](C)CNC[C@@H]1C [Compound 16, (3S,4s,5R)-4-(2-fluoro-4-(3-fluoro-1H-pyrrolo[2,3-b]pyridin-4-yl)-6-methylphenyl)-3,5-dimethylpiperidin-4-ol] | – | – | – | 10 | 7.1 | 201 |
| C[C@@H]1CN(Cc2ccncc2)C[C@H](C)[C@@]1(O)c1c(F)cc(-c2ccnc3[nH]cc(F)c23)cc1F [Compound 19, (3S,4s,5R)-4-(2,6-difluoro-4-(3-fluoro-1H-pyrrolo[2,3-b]pyridin-4-yl)phenyl)-3,5-dimethyl-1-(pyridin-4-ylmethyl)piperidin-4-ol] | – | – | – | 9.2 | 11 | 1020 |
| C[C@@H]1CN(C2CCC2)C[C@H](C)[C@@]1(O)c1ccc(-c2ccnc3[nH]cc(F)c23)cc1Cl [Compound 20, (3S,4s,5R)-4-(2-chloro-4-(3-fluoro-1H-pyrrolo[2,3-b]pyridin-4-yl)phenyl)-1-cyclobutyl-3,5-dimethylpiperidin-4-ol] | – | – | – | 2.7 | 2.6 | 195 |
| C[C@@H]1CN(C2COC2)C[C@H](C)[C@@]1(O)c1ccc(-c2ccnc3[nH]cc(F)c23)cc1Cl [Compound 21, (3S,4s,5R)-4-(2-chloro-4-(3-fluoro-1H-pyrrolo[2,3-b]pyridin-4-yl)phenyl)-3,5-dimethyl-1-(oxetan-3-yl)piperidin-4-ol] | – | – | – | 2.8 | 3 | 249 |
| C[C@@H]1CN(C2CCS(=O)(=O)CC2)C[C@H](C)[C@@]1(O)c1ccc(-c2ccnc3[nH]cc(F)c23)cc1Cl [Compound 26, 4-((3S,4s,5R)-4-(2-chloro-4-(3-fluoro-1H-pyrrolo[2,3-b]pyridin-4-yl)phenyl)-4-hydroxy-3,5-dimethylpiperidin-1-yl)tetrahydro-2H-thiopyran 1,1-dioxide] | – | – | – | 0.51 | 0.73 | 18.8 |
| Cc1cc(-c2ccnc3[nH]cc(F)c23)ccc1[C@@]1(O)[C@H](C)CN(C2CCOCC2)C[C@@H]1C [Compound 27, (3S,4s,5R)-4-(4-(3-fluoro-1H-pyrrolo[2,3-b]pyridin-4-yl)-2-methylphenyl)-3,5-dimethyl-1-(tetrahydro-2H-pyran-4-yl)piperidin-4-ol] | – | – | – | 2.2 | 1.7 | 47.9 |
